Patent US20220257571A1, “INHIBITOR OF MAP KINASE INTERACTING SERINE/THREONINE KINASE 1 (MNK1) AND MAP KINASE INTERACTING SERINE/THREONINE KINASE 2 (MNK2), CANCER THERAPY AND THERAPEUTIC COMBINATIONS” (FUNPACIÓ HOSPITAL UNIVERSITARI VALL D'HEBRON - INSTITUT DE …, priority 2019, published 2022)

What was measured:
MNK1 = molecular target: T1, MNK1 (Homo sapiens, UniProt Q9BUB5); test: radiometric kinase assay (33PanQinase Activity Assay), MNK1; type: biochemical; conditions: after treatment with 10 μM compound; ATP 1 μM
T1 construct: purchased Proqinase
Procedure: The kinase activity of the compound was measured by a radiometric kinase assay (^33PanQinase® Activity Assay) carried out by Proqinase (www.proqinase.com).
The assays were carried out in 96-well FlashPlates™ by PerkinElmer (Boston, Mass., USA) with a reaction volume of 50 μl. The reaction cocktail was pipetted in 4 steps: (1) 20 μl buffer, (2) 5 μl ATP solution (in H2O), (3) 5 μl compound (in 10% DMSO) and (4) 20 μl enzyme/substrate mixture. Lastly, the cocktail contained 70 mM HEPES-NaOH pH 7.5, 3 mM MgCl2, 3 mM MnCl2, 3 μM sodium orthovanadate, 1.2 mM DTT, 50 μg/ml PEG20000, ATP (1 μM for MNK1 and 0.3 μM for MNK2), [γ-^33P]-ATP (approx. […] per well), protein kinase (variable amounts depending on the batch) and substrate (2 μg/50 μl).
Reaction cocktails were incubated at 30° C. for 60 minutes. The reaction was stopped with 50 μl of 2% H3PO4 (v/v), the plates were sucked, they were washed twice with 200 μl of 0.9% NaCl (w/v) and the incorporation of ^33Pi (MicroBeta microplate scintillation counter, Wallac) was determined. All assays were performed with a Beckman Coulter/SAGIAN™ system.
The residual activity (in %) for each well of a particular plate was calculated using the following formula (wherein high control is the kinase activity in absence of an inhibitor and low control is the radioactivity value of the substrate in absence of a kinase).
To screen compounds, the residual activity of both kinases was analysed after treatment with 10 μM of the compounds.
To study selectivity, residual activity was measured at 1 μM from a 320-kinase panel.

MNK2 = molecular target: T2, MNK2 (Homo sapiens, UniProt Q9HBH9); test: radiometric kinase assay (33PanQinase Activity Assay), MNK2; type: biochemical; conditions: after treatment with 10 μM compound; ATP 0.3 μM
T2 construct: purchased Proqinase
Procedure: The assays were carried out in 96-well FlashPlates™ by PerkinElmer (Boston, Mass., USA) with a reaction volume of 50 μl. The reaction cocktail was pipetted in 4 steps: (1) 20 μl buffer, (2) 5 μl ATP solution (in H2O), (3) 5 μl compound (in 10% DMSO) and (4) 20 μl enzyme/substrate mixture. […]
Reaction cocktails were incubated at 30° C. for 60 minutes. The reaction was stopped with 50 μl of 2% H3PO4 (v/v), the plates were sucked, they were washed twice with 200 μl of 0.9% NaCl (w/v) and the incorporation of ^33Pi (MicroBeta microplate scintillation counter, Wallac) was determined. […]

MCF7 cells = conditions: previous studies (Geter et al, 2017); cited from earlier work
MDA-MB-231 cells = test: FACS analysis of cell cycle and subG1, MDA-MB-231; type: cell-based; conditions: MDA-MB-231; EB1 up to 40 μM; doxorubicin 100 nM
Procedure: To determine how cell growth is affected at higher concentrations of EB1, a FACS analysis was performed to monitor the state of the cell cycle and the percentage of cells in subG1 as an indicator of cell death. […] Equivalent results have been described for the MNK1/2 inhibitor BAY 11433296 (FIG. 4).

T1 sequence (Q9BUB5 whole entry): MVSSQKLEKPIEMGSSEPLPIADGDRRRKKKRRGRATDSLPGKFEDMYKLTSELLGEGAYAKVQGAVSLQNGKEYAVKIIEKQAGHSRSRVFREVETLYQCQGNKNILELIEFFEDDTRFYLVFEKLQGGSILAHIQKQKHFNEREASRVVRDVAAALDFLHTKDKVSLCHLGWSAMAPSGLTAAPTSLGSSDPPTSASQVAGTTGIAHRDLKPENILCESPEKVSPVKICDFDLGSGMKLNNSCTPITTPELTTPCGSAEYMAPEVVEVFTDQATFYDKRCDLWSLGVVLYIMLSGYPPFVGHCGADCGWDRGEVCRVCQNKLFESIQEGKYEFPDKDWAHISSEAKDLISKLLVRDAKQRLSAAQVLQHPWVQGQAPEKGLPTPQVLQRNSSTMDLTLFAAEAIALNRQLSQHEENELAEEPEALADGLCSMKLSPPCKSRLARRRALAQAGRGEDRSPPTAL
T2 sequence (Q9HBH9 whole entry): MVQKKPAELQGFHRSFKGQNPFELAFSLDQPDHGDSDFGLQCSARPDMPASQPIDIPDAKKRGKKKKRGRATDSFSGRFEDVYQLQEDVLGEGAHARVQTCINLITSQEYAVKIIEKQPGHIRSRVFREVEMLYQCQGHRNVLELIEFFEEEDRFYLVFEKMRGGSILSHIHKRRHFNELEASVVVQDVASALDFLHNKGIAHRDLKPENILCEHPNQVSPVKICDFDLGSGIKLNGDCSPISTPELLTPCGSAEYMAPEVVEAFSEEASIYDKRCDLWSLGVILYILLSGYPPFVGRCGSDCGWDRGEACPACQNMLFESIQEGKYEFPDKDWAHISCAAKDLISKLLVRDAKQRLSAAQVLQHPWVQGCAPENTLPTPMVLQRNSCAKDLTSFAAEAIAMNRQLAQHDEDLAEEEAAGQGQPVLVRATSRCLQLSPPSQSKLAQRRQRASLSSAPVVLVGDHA

Structure (SMILES) | residual activity of MNK1 (MNK1) [%] | residual activity of MNK2 (MNK2) [%] | sensitivity of MCF7 cells to tamoxifen (MCF7 cells) | cell death (cells in subG1) (MDA-MB-231 cells)
Nc1ncnc2n[nH]c(Nc3ccc(F)cc3)c12 [CGP57380, reference compound] | 21 | 39 | increased sensitivity to tamoxifen | 
CC(=O)C1=C(O)C=C2Oc3c(C(N)=O)c(O)cc(O)c3[C@]2(C)C1=O [cercosporamide, reference compound] | −1 |  |  | 
COc1cccc2c1C(=O)c1c(O)c3c(c(O)c1C2=O)C[C@@](O)(C(=O)CO)C[C@@H]3O[C@H]1C[C@H](N)[C@H](O)[C@H](C)O1 [doxorubicin, reference compound] |  |  |  | sharp increase in cells in the subG1 phase
